Test results: BindingDB's records for doi:10.1002/cbic.200800704 (Antibiotics Laboratory, 2009)

Target: Carbonic anhydrase 2 (Homo sapiens, UniProt P00918)
Test: Inhibition Assay
Details: pH 8.4
Method: Inhibitory activity of the compounds for CAII was measured and IC50 values were calculated from independent triplicated experiments. Kd values were obtained by ITC analysis.

Structure (SMILES)	IC50	Kd
NS(=O)(=O)c1ccc(N2CCN(C(=O)c3ccncc3)CC2)cc1 [Piperazine moiety, 6]	72 nM	100 nM
NS(=O)(=O)c1ccc(N2CCNCC2)cc1 [Piperazine moiety, 4]	299 nM	426 nM
NS(=O)(=O)c1ccc(N2CCN(Cc3ccncc3)CC2)cc1 [Piperazine moiety, 3]	48 nM	29 nM

Further lines, results first:

IC50	Kd	Structure (SMILES)
137 nM	208 nM	NS(=O)(=O)c1ccc(N2CCN(CCO)CC2)cc1 [Piperazine moiety, 5]
203 nM	435 nM	NS(=O)(=O)c1ccc(F)cc1 [4-Fuloro sulfonamide, C]
